Data taken from paper PMC7418496, “In Kluyveromyces lactis a Pair of Paralogous Isozymes Catalyze the First Committed Step of Leucine Biosynthesis in Either the Mitochondria or the Cytosol” (Frontiers in Microbiology, 2020).

What was measured:
KlLeu4 [1] = biological target: T1, KlLeu4 (Kluyveromyces lactis, UniProt Q6CIW1); experiment: initial velocity inhibition kinetics, global fit; type: biochemical; details: read-out: Kis /
T1 construct: gene KLLA0_F23529g; expressed in E. coli BL21(DE3), Ni-NTA purified (tag not described); homodimer
T1 sequence (Q6CIW1 1-609): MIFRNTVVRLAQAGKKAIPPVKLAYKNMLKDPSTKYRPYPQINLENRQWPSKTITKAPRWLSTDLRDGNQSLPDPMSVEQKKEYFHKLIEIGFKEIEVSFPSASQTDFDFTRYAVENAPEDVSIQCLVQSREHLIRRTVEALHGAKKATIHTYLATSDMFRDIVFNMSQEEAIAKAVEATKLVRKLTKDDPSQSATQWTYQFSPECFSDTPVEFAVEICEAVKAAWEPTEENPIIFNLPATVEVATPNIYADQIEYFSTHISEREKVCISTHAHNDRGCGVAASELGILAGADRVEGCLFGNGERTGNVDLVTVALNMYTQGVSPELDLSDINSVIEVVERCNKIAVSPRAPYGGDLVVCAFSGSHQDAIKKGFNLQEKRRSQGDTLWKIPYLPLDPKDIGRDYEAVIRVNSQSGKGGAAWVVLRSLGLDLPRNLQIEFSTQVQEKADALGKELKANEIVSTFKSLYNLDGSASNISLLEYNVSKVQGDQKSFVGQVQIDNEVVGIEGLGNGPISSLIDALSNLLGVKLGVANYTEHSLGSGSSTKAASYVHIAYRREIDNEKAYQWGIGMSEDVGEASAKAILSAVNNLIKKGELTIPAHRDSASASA
Text: initial velocity inhibition kinetics, global fit on KlLeu4

KlLeu4 [2] = biological target: T2, KlLeu4 (Kluyveromyces lactis, UniProt Q6CIW1); experiment: α-IPMS activity in whole cell extract, DTNB assay […] nm; type: biochemical; details: 0.25 mM acetyl-CoA, 10 mM α-KIV, 50 mM phosphate pH 7.5, 140 mM KCl, 4 mM MgCl2, 30 °C
T2 construct: gene KLLA0_F23529g; native untagged enzyme in whole cell extract of the Klleu4bisΔ single mutant; homodimer

KlLeu4BIS [3] = biological target: T3, KlLeu4BIS (Kluyveromyces lactis, UniProt Q6CQU3); experiment: initial velocity inhibition kinetics, global fit; type: biochemical; details: read-out: Kis /
T3 construct: gene KLLA0_D14201g; expressed in E. coli Rosetta 2 (DE3), Ni-NTA purified (tag not described); homodimer
T3 sequence (Q6CQU3 1-583): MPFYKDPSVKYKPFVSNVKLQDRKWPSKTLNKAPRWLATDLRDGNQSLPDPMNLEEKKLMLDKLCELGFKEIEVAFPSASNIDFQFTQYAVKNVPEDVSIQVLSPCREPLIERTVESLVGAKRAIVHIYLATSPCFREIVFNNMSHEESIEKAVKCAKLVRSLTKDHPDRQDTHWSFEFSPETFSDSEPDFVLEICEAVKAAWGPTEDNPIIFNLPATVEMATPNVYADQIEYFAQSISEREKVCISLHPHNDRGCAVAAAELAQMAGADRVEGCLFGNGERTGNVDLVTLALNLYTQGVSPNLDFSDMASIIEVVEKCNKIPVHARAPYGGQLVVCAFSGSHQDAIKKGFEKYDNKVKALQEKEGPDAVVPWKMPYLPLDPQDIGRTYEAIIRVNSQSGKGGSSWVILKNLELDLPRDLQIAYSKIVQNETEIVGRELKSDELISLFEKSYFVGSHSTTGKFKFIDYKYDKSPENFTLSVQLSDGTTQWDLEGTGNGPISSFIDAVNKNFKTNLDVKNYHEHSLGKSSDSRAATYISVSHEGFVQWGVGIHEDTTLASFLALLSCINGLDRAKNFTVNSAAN
Text: initial velocity inhibition kinetics, global fit on KlLeu4BIS

KlLeu4BIS [4] = biological target: T4, KlLeu4BIS (Kluyveromyces lactis, UniProt Q6CQU3); experiment: α-IPMS activity in whole cell extract, DTNB assay […] nm; type: biochemical; details: 0.25 mM acetyl-CoA, 10 mM α-KIV, 50 mM phosphate pH 7.5, 140 mM KCl, 4 mM MgCl2, 30 °C
T4 construct: gene KLLA0_D14201g; native untagged enzyme in whole cell extract of the Klleu4Δ single mutant; homodimer

KlLeu4BIS [5] = biological target: T3, KlLeu4BIS; experiment: initial velocity kinetics from kinetic global fit, ordered bi-bi; type: biochemical; details: kinetic dissociation constant; varied with α-KIV 0.01–0.25 mM; 50 mM phosphate pH 7.5, 140 mM KCl, 4 mM MgCl2, 30 °C, DTNB; read-out: Kia /
Text: initial velocity kinetics from kinetic global fit, ordered bi-bi on KlLeu4BIS

KlLeu4 [6] = biological target: T1, KlLeu4; experiment: as above; type: biochemical; details: kinetic dissociation constant; varied with α-KIV 0.002–0.08 mM; 50 mM phosphate pH 7.5, 140 mM KCl, 4 mM MgCl2, 30 °C, DTNB; read-out: Kia /
Text: initial velocity kinetics from kinetic global fit, ordered bi-bi on KlLeu4

[7] = substrate: CC(=O)SCCNC(=O)CCNC(=O)[C@H](O)C(C)(C)COP(=O)(O)OP(=O)(O)OC[C@H]1O[C@@H](n2cnc3c(N)ncnc32)[C@H](O)[C@@H]1OP(=O)(O)O; experiment: initial velocity kinetics, global fit, ordered bi-bi; type: biochemical, Kluyveromyces lactis; details: α-KIV co-varied 0.002–0.08 mM, 50 mM phosphate pH 7.5, 140 mM KCl, 4 mM MgCl2, 30 °C, DTNB
Text: (§1) initial velocity kinetics, global fit, ordered bi-bi on KlLeu4

[8] = substrate: CC(C)C(=O)C(=O)O; experiment: as above; type: biochemical, Kluyveromyces lactis; details: acetyl-CoA co-varied 0.002–0.1 mM, 50 mM phosphate pH 7.5, 140 mM KCl, 4 mM MgCl2, 30 °C, DTNB
Text: as §1

[9] = substrate: CC(=O)SCCNC(=O)CCNC(=O)[C@H](O)C(C)(C)COP(=O)(O)OP(=O)(O)OC[C@H]1O[C@@H](n2cnc3c(N)ncnc32)[C@H](O)[C@@H]1OP(=O)(O)O; experiment: as above; type: biochemical, Kluyveromyces lactis; details: α-KIV co-varied 0.01–0.25 mM, 50 mM phosphate pH 7.5, 140 mM KCl, 4 mM MgCl2, 30 °C, DTNB
Text: (§2) initial velocity kinetics, global fit, ordered bi-bi on KlLeu4BIS

[10] = substrate: CC(C)C(=O)C(=O)O; experiment: as above; type: biochemical, Kluyveromyces lactis; details: acetyl-CoA co-varied 0.008–0.1 mM, 50 mM phosphate pH 7.5, 140 mM KCl, 4 mM MgCl2, 30 °C, DTNB
Text: as §2

Work on `CC(C)C[C@H](N)C(=O)O` [leucine] yielded a Ki (KlLeu4 [1]) of 34 ± 11 µM, an IC50 (KlLeu4 [2]) of 20 µM and a Ki (KlLeu4BIS [3]) of 31 ± 8 µM. For the same molecule, the IC50 (KlLeu4BIS [4]) was 37 µM.

`CC(=O)SCCNC(=O)CCNC(=O)[C@H](O)C(C)(C)COP(=O)(O)OP(=O)(O)OC[C@H]1O[C@@H](n2cnc3c(N)ncnc32)[C@H](O)[C@@H]1OP(=O)(O)O` [acetyl coenzyme A] gave a Kd (KlLeu4BIS [5]) of 12 ± 7 µM and a Kd (KlLeu4 [6]) of 17 ± 5 µM.

B1: KlLeu4 (Kluyveromyces lactis NRRL Y-1140) (protein)
chain: T1 sequence (Q6CIW1 1-609)
notes: expressed in E. coli BL21(DE3), Ni-NTA purified (tag not described); homodimer
B1 was tested, and the Km [7] was 26 ± 3 µM and the Km [8] was 25 ± 3 µM.

B2: KlLeu4BIS (Kluyveromyces lactis NRRL Y-1140) (protein)
chain: T3 sequence (Q6CQU3 1-583)
notes: expressed in E. coli Rosetta 2 (DE3), Ni-NTA purified (tag not described); homodimer
Molecule B2 has a Km [9] of 19 ± 5 µM and a Km [10] of 55 ± 13 µM.
